Experimental data from ChEMBL document CHEMBL4190244, “Perylenyltriazoles inhibit reproduction of enveloped viruses” (Eur J Med Chem, 2017).

Legend:
[1] = tested on: Tick-borne encephalitis virus; experiment: Antiviral activity against TBEV Absettarov infected in PEK cells preincubated simultaneously with cells and virus for 1 hr with shaking every 15 to 20 mins measured after 6 days by gentian violet-staining based assay; assay type: functional, organism-based
[2] = Cytotoxicity against PEK cells after 24 hrs; assay type: cell-based, Sus scrofa; details: pig
[3] = Cytotoxicity against PEK cells after 7 days; assay type: cell-based, Sus scrofa; details: pig

`O=c1[nH]c(=O)n([C@H]2C[C@H](O)[C@@H](CO)O2)cc1-n1cc(-c2ccc3c4cccc5cccc(c6cccc2c63)c54)nn1` gave an EC50 [1] of 0.038 µM, a CC50 at 24 h [2] of over 50 µM and a CC50 at 168 h [3] of over 50 µM.
`O=c1[nH]c(=O)n([C@@H]2O[C@H](CO)[C@@H](O)[C@H]2O)cc1-n1cc(-c2ccccc2)nn1` showed an EC50 [1] of over 50 µM, a CC50 at 24 h [2] of over 50 µM and a CC50 at 168 h [3] of over 50 µM.
`O=c1[nH]c(=O)n([C@@H]2O[C@H](CO)[C@@H](O)[C@H]2O)cc1-n1cc(-c2ccc3c4cccc5cccc(c6cccc2c63)c54)nn1` showed an EC50 [1] of 0.031 µM, a CC50 at 24 h [2] of over 50 µM and a CC50 at 168 h [3] of over 50 µM.
Compound `OCCn1cc(-c2cc3cccc4c5cccc6cccc(c(c2)c34)c65)nn1` has an EC50 [1] of 0.023 µM, a CC50 at 24 h [2] of over 50 µM and a CC50 at 168 h [3] of over 50 µM.
`O=c1[nH]c(=O)n([C@H]2C[C@H](O)[C@@H](CO)O2)cc1-n1cc(-c2cc3cccc4c5cccc6cccc(c(c2)c34)c65)nn1` gave an EC50 [1] of 0.06 µM, a CC50 at 24 h [2] of over 50 µM and a CC50 at 168 h [3] of over 50 µM.
For `OCCn1cc(-c2ccc3c4cccc5cccc(c6cccc2c63)c54)nn1`, the EC50 [1] was 0.1 µM, the CC50 at 24 h [2] was over 50 µM and the CC50 at 168 h [3] was over 50 µM.
For `O=c1[nH]c(=O)n([C@@H]2O[C@H](CO)[C@@H](O)[C@H]2O)cc1-n1cc(-c2cc3cccc4c5cccc6cccc(c(c2)c34)c65)nn1`, the EC50 [1] was 0.06 µM, the CC50 at 24 h [2] was over 50 µM and the CC50 at 168 h [3] was over 50 µM.
Compound `O=c1[nH]c(=O)n([C@H]2C[C@H](O)[C@@H](CO)O2)cc1-n1cc(-c2ccccc2)nn1` has an EC50 [1] of over 50 µM, a CC50 at 24 h [2] of over 50 µM and a CC50 at 168 h [3] of over 50 µM.
